Row | melting point [°C] | Compound
1 | 156 | N#CCC(=O)N[C@H]1CC[C@@H](CCN2CCN(c3ccc(C(F)(F)F)cc3)CC2)CC1 [Example 613, 2-Cyano-N-(4-{2-[4-(4-trifluoromethylphenyl)piperazin-1-yl]ethyl}cyclohexyl)acetamide]
2 | 177 | COCCCC(=O)N[C@H]1CC[C@H](CCN2CCN(c3cc(C(F)(F)F)ccc3F)CC2)CC1 [Example 616, N-(4-{2-[4-(2-Fluoro-5-trifluoromethylphenyl)piperazin-1-yl]ethyl}cyclohexyl)-4-methoxybutanamide]
3 | 103 | CC(=O)CN1CCC(CCN2CCN(c3ccc(C)c(Cl)c3)CC2)CC1 [Example 618, 1-(4-{2-[4-(3-Chloro-4-methylphenyl)piperazin-1-yl]ethyl}piperidin-1-yl)propan-2-one]
4 | 82 | CC(=O)CN1CCC(CCN2CCN(c3ccc(F)c(Cl)c3F)CC2)CC1 [Example 623, 1-(4-{2-[4-(3-Chloro-2,4-difluorophenyl)piperazin-1-yl]ethyl}piperidin-1-yl)propan-2-one]
5 | 238 | NC(=O)CCC(=O)N[C@H]1CC[C@H](CCN2CCN(c3cc(C(F)(F)F)ccc3F)CC2)CC1 [Example 631, N-(4-{2-[4-(2-Fluoro-5-trifluoromethylphenyl)piperazin-1-yl]ethyl}cyclohexyl)succinamide]
6 | 84 | CC(=O)CN1CCC(CCN2CCN(c3cccc(CO)c3)CC2)CC1 [Example 640, 1-(4-{2-[4-(3-Hydroxymethylphenyl)piperazin-1-yl]ethyl}piperidin-1-yl)propan-2-one]
7 | 98 | CC(=O)CN1CCC(CCN2CCN(c3ccc4c(c3)CCCCC4)CC2)CC1 [Example 642, 1-(4-{2-[4-(6,7,8,9-Tetrahydro-5H-benzocyclohepten-2-yl)piperazin-1-yl]ethyl}piperidin-1-yl)propan-2-one]
8 | 207 | N#CCCC(=O)N[C@H]1CC[C@H](CCN2CCN(c3ccc(C(F)(F)F)cc3)CC2)CC1 [Example 643, 3-Cyano-N-(4-{2-[4-(4-trifluoromethylphenyl)piperazin-1-yl]ethyl}cyclohexyl) propanamide]
9 | 160 | N#CCCC(=O)N[C@H]1CC[C@H](CCN2CCN(c3cccc(C#N)c3)CC2)CC1 [Example 644, 3-Cyano-N-(4-{2-[4-(3-cyanophenyl)piperazin-1-yl]ethyl}cyclohexyl)propanamide]
10 | 212 | N#CCC(=O)N[C@H]1CC[C@H](CCN2CCN(c3ccc(C(F)(F)F)cc3F)CC2)CC1 [Example 645, 2-Cyano-N-(4-{2-[4-(2-fluoro-4-trifluoromethylphenyl)piperazin-1-yl]ethyl}cyclohexyl) acetamide]
11 | 165 | N#CCCCC(=O)N[C@H]1CC[C@H](CCN2CCN(c3ccc(C(F)(F)F)cc3F)CC2)CC1 [Example 646, 4-Cyano-N-(4-{2-[4-(2-fluoro-4-trifluoromethylphenyl)piperazin-1-yl]ethyl}cyclohexyl)-butanamide]
12 | 203 | COCCCC(=O)N[C@H]1CC[C@H](CCN2CCN(c3ccc(F)c(F)c3F)CC2)CC1 [Example 652, 4-Methoxy-N-(4-{2-[4-(2,3,4-trifluorophenyl)piperazin-1-yl]ethyl}cyclohexyl)butanamide]
13 | 176 | N#Cc1cccc(N2CCN(CC[C@H]3CC[C@H](NC(=O)CCC(F)(F)F)CC3)CC2)c1 [Example 653, N-(4-{2-[4-(3-Cyanophenyl)piperazin-1-yl]ethyl}cyclohexyl)-4,4,4-trifluorobutanamide]
14 | 88 | CC(=O)CN1CCC(CCN2CCN(c3ccc(F)c(F)c3F)CC2)CC1 [Example 656]
15 | 102 | CC(=O)CN1CCC(CCN2CCN(c3ccc(F)c(C#N)c3)CC2)CC1 [Example 659, 2-Fluoro-5-(4-{2-[1-(2-oxopropyl)piperidin-4-yl]ethyl}piperazin-1-yl)benzonitrile]
16 | 185 | N#CCC(=O)N[C@H]1CC[C@H](CCN2CCN(c3ccc(F)c(C#N)c3)CC2)CC1 [Example 660, 2-Cyano-N-(4-{2-[4-(3-cyano-4-fluorophenyl)piperazin-1-yl]ethyl}cyclohexyl)acetamide]
17 | 197 | COCCCC(=O)N[C@H]1CC[C@H](CCN2CCN(c3ccc(F)c(C#N)c3)CC2)CC1 [Example 661, N-(4-{2-[4-(3-Cyano-4-fluorophenyl)piperazin-1-yl]ethyl}cyclohexyl)-4-methoxybutanamide]
18 | 158 | N#CCCCC(=O)N[C@H]1CC[C@H](CCN2CCN(c3ccc(F)c(C#N)c3)CC2)CC1 [Example 662, 4-Cyano-N-(4-{2-[4-(3-cyano-4-fluorophenyl)piperazin-1-yl]ethyl}cyclohexyl)butanamide]
19 | 90 | CC(=O)CN1CCC(CCN2CCN(c3cc(F)ccc3F)CC2)CC1 [Example 663, 1-(4-{2-[4-(2,5-Difluorophenyl)piperazin-1-yl]ethyl}piperidin-1-yl)propan-2-one]
20 | 178 | N#CCC(=O)N[C@H]1CC[C@H](CCN2CCN(c3cc(F)cc(C(F)(F)F)c3)CC2)CC1 [Example 664, 2-Cyano-N-(4-{2-[4-(3-fluoro-5-trifluoromethylphenyl)piperazin-1-yl]ethyl}cyclohexyl)acetamide]

Row | melting point [°C] | Compound
21 | 163 | N#CCCCC(=O)N[C@H]1CC[C@H](CCN2CCN(c3cc(F)cc(C(F)(F)F)c3)CC2)CC1 [Example 665, 4-Cyano-N-(4-{2-[4-(3-fluoro-5-trifluoromethylphenyl)piperazin-1-yl]ethyl}cyclohexyl)butanamide]
22 | 164 | N#CCCC(=O)N[C@H]1CC[C@H](CCN2CCN(c3cc(C(F)(F)F)ccc3F)CC2)CC1 [Example 668, 3-Cyano-N-(4-{2-[4-(2-fluoro-5-trifluoromethylphenyl)piperazin-1-yl]ethyl}cyclohexyl)propanamide]
23 | 177 | O=C(CC(F)(F)F)N[C@H]1CC[C@H](CCN2CCN(c3cc(C(F)(F)F)ccc3F)CC2)CC1 [Example 670, 3,3,3-Trifluoro-N-(4-{2-[4-(2-fluoro-5-trifluoromethylphenyl)piperazin-1-yl]ethyl}cyclohexyl) propanamide]
24 | 185 | NC(=O)CC(=O)N[C@H]1CC[C@H](CCN2CCN(c3cc(C(F)(F)F)ccc3F)CC2)CC1 [Example 671, N-(4-{2-[4-(2-Fluoro-5-trifluoromethylphenyl)piperazin-1-yl]ethyl}cyclohexyl)-malonamide]
25 | 180 | CCc1ccc(F)c(N2CCN(CC[C@H]3CC[C@H](NC(=O)CC#N)CC3)CC2)c1 [Example 673, 2-Cyano-N-(4-{2-[4-(5-ethyl-2-fluorophenyl)piperazin-1-yl]ethyl}cyclohexyl)acetamide]
26 | 153 | CCc1ccc(F)c(N2CCN(CC[C@H]3CC[C@H](NC(=O)CCCC#N)CC3)CC2)c1 [Example 674, 4-Cyano-N-(4-{2-[4-(5-ethyl-2-fluorophenyl)piperazin-1-yl]ethyl}cyclohexyl)butanamide]
27 | 148 | COCCCC(=O)N[C@H]1CC[C@H](CCN2CCN(c3cccc(C)c3)CC2)CC1 [Example 675, 4-Methoxy-N-{4-[2-(4-m-tolylpiperazin-1-yl)ethyl]cyclohexyl}butanamide]
28 | 210 | COCCCC(=O)N[C@H]1CC[C@H](CCN2CCN(c3ccc(Cl)c(Cl)c3F)CC2)CC1 [Example 684, N-(4-{2-[4-(3,4-Dichloro-2-fluoro-phenyl)piperazin-1-yl]ethyl}cyclohexyl)-4-methoxybutanamide]
29 | 113 | CSc1cccc(N2CCN(CCC3CCN(CC(C)=O)CC3)CC2)c1 [Example 686, 1-(4-{2-[4-(3-Methylsulfanyl-phenyl)piperazin-1-yl]ethyl}-piperidin-1-yl)propan-2-one]
30 | 210 | N#CCC(=O)N[C@H]1CC[C@H](CCN2CCN(c3ccc(F)c(C#N)c3F)CC2)CC1 [Example 687, 2-Cyano-N-(4-{2-[4-(3-cyano-2,4-difluorophenyl)piperazin-1-yl]ethyl}cyclohexyl)acetamide]
31 | 203 | N#CCCCC(=O)N[C@H]1CC[C@H](CCN2CCN(c3ccc(F)c(C#N)c3F)CC2)CC1 [Example 688, 4-Cyano-N-(4-{2-[4-(3-cyano-2,4-difluorophenyl)piperazin-1-yl]ethyl}cyclohexyl)butanamide]
32 | 172 | COCCCC(=O)N[C@H]1CC[C@H](CCN2CCN(c3cccc(F)c3C)CC2)CC1 [Example 689, N-(4-{2-[4-(3-Fluoro-2-methylphenyl)piperazin-1-yl]ethyl}cyclohexyl)-4-methoxybutanamide]
33 | 108 | CC(=O)CN1CCC(CCN2CCN(c3ccc(F)c(C#N)c3F)CC2)CC1 [Example 690, 2,6-Difluoro-3-(4-{2-[1-(2-oxo-propyl)piperidin-4-yl]ethyl}piperazin-1-yl)benzonitrile]
34 | 184 | COCCCC(=O)N[C@H]1CC[C@H](CCN2CCN(c3cc(Cl)cc(Cl)c3)CC2)CC1 [Example 691, N-(4-{2-[4-(3,5-Dichlorophenyl)piperazin-1-yl]ethyl}cyclohexyl)-4-methoxybutanamide]
35 | 211 | COCCCC(=O)N[C@H]1CC[C@H](CCN2CCN(c3ccc(F)c(C#N)c3F)CC2)CC1 [Example 692, N-(4-{2-[4-(3-Cyano-2,4-difluorophenyl)piperazin-1-yl]ethyl}cyclohexyl)-4-methoxybutanamide]
36 | 86 | CC(=O)CN1CCC(CCN2CCN(c3cc(F)c(F)c(F)c3)CC2)CC1 [Example 697, 1-(4-{2-[4-(3,4,5-Trifluoro-phenyl)-piperazin-1-yl]ethyl}piperidin-1-yl)propan-2-one]
37 | 204 | COCCCC(=O)N[C@H]1CC[C@H](CCN2CCN(c3ccc(Cl)cc3)CC2)CC1 [Example 698, N-(4-{2-[4-(4-Chlorophenyl)-piperazin-1-yl]ethyl}cyclohexyl)-4-methoxybutanamide]
38 | 139 | COCC(=O)N[C@H]1CC[C@H](CCN2CCN(c3cc(C(F)(F)F)ccc3F)CC2)CC1 [Example 701, N-(4-{2-[4-(2-Fluoro-5-trifluoromethylphenyl)piperazin-1-yl]ethyl}cyclohexyl)-2-methoxyacetamide]
39 | 199 | O=C(N[C@H]1CC[C@H](CCN2CCN(c3cc(C(F)(F)F)ccc3F)CC2)CC1)C1=CCCC1 [Example 705]

— patent US8802678B2, “Carbonylated (aza) cyclohexanes as dopamine D3 receptor ligands” (Bioprojet, priority 2006, dated 2014)
